{"source": "patent US20190151307A1", "about": "(priority 2017, published 2019)", "key": {"HIV": {"tested_on": "HIV", "settings": "cited from earlier work"}, "[1]": {"assay": "Phase 1 study: steady-state plasma PK of TAF and TFV after B/F/TAF BID with rifampin vs B/F/TAF QD alone", "format": "in vivo, human", "settings": "BID TAF administration (B/F/TAF BID+RIF), compared to prior PK results of TDF-containing regimens, FIG. 2", "procedure": "This study evaluated the steady state pharmacokinetics of TAF, TAF metabolite TFV, and emtricitabine (FTC) following coadministration of bictegravir/emtricitabine/tenofovir alafenamide (B/F/TAF) fixed dose combination (FDC) twice daily with rifampin 600 mg once daily compared to those of B/F/TAF FDC once daily administered alone.\nIn this Phase 1, open-label, parallel multiple dose study, healthy volunteers were assigned to one of two cohorts (cohort 1 (n=26) or cohort 2 (n=26)) and received study treatments beginning on day 1 and continuing for 28 days (cohort 1) or 35 days (cohort 2).\nThe duration of the study was approximately 57 days for cohort 1 and approximately 44 days for cohort 2. […]\nPharmacokinetic assessments of plasma PK and PBMC PK were evaluated. […] PK parameters of TFV-DP and FTC-TP in PBMCs were calculated as applicable and included AUCtau, Ctrough, Cmax, accumulation ratios, and t1/2 with and without RIF. […]\nPlasma concentrations of TAF and TFV were determined and pharmacokinetics were evaluated as applicable.\nPlasma concentrations were determined using validated liquid chromatography-tandem mass spectrometry (LC/MS/MS) assays. Intracellular PBMC TFV-DP concentrations were determined via a validated LC/MS/MS assay combined with PBMC cell counting via a DNA quantitation procedure. […]"}, "[2]": {"settings": "peripheral blood mononuclear cells (PBMC) isolated from patients; cited from earlier work"}, "clinical": {"assay": "clinical", "format": "in vivo, human", "settings": "single dose BIC 75 mg, fed, RIF 600 mg", "procedure": "This was a Phase 1, open-label, multiple-dose, multiple-cohort, adaptive design study in healthy adult subjects.\nThe duration of dosing was 9 days (with a 3-day washout between the first and second doses of study treatment). The study duration (not including screening) was approximately 21 days. The study had n=15 subjects.\nIn addition, the following multiple-dose plasma PK parameters of GS-9883 were calculated, as applicable: Ctau, Cmax, Clast, AUCtau, Tmax, Tlast, t1/2, and CL/F.\nSerial blood samples for intensive PK sampling were collected at the following time points relative to the morning dose of study drug(s) administered: 0 (pre-dose) and 0.5, 1, 1.5, 2, 3, 4, 6, 8, 10, 12, 16, 24, 36, 48, 72, and 96 hours post-dose on Days 1 and 15. Daily pre-dose PK sampling was collected at days 10 and 14.\nThe ANOVA model included treatment as a fixed effect and subject as a random effect."}, "[3]": {"settings": "intracellular TFV-DP with TDF; cited from earlier work"}}}
{"smiles": "CC(C)OC(=O)[C@H](C)N[P@](=O)(CO[C@H](C)Cn1cnc2c(N)ncnc21)Oc1ccccc1", "note": "[TAF, 9-[(R)-2-[[(S)-[[(S)-1-(isopropoxycarbonyl)ethyl]amino]phenoxyphosphinyl]-methoxy]propyl]adenine]", "values": [{"measurement": "enhancement in anti-HIV activity in cell culture of TAF over TFV", "setting": "HIV", "result": 600, "unit": "fold"}, {"measurement": "total overall systemic TFV plasma exposure over 24 hours vs TDF-containing regimens", "setting": "[1]", "result": "markedly lower"}]}
{"smiles": "C[C@@H](Cn1cnc2c(N)ncnc21)OCP(=O)(O)OP(=O)(O)OP(=O)(O)O", "note": "[TFV-DP]", "values": [{"measurement": "intracellular half-life", "setting": "[2]", "result": 150, "unit": "h"}]}
{"smiles": "O=C(NCc1c(F)cc(F)cc1F)c1cn2c(c(O)c1=O)C(=O)N1[C@H]3CC[C@H](C3)O[C@@H]1C2", "note": "[BIC]", "values": [{"measurement": "half-life", "setting": "clinical; human, in vivo, BIC t1/2, plasma, median per text", "result": "~18.1", "unit": "h"}, {"measurement": "BIC % AUCexp, Mean (% CV)", "setting": "clinical; plasma", "result": 3.1, "unit": "%"}, {"measurement": "BIC CL/F, Mean (% CV)", "setting": "clinical; plasma", "result": 545.1, "unit": "mL/h"}, {"measurement": "BIC Clast, Mean (% CV)", "setting": "clinical; plasma", "result": 192.7, "unit": "ng/mL"}, {"measurement": "BIC Tlast", "setting": "clinical; plasma", "result": 95.93, "unit": "h"}]}
{"smiles": "CC(C)OC(=O)OCOP(=O)(CO[C@H](C)Cn1cnc2c(N)ncnc21)OCOC(=O)OC(C)C", "note": "[TDF, 9-[(R)-2-[[bis[[(isopropoxycarbonyl)oxy]methoxy]phosphinyl]methoxy]propyl]adenine]", "values": [{"measurement": "historical steady-state TFV-DP threshold effectiveness concentration", "setting": "[3]", "result": "85-222 fmol/10^6 cells"}]}
